# Measurements as given in PubChem BioAssay AID1996.
# Conditions: buffer; pH 7.4; 200.0 µM
row,SMILES,solubility kinetic [µg/mL]
1,CC(NCc1ccc2c(c1)OCO2)c1ccccc1.Cl (stereo not given),41
2,COc1ccccc1NC(=O)c1sc(Cl)nc1C,36.8
3,Cn1cccc1C(=O)OCC(=O)Nc1ccc2[nH]c(=O)[nH]c2c1,11.1
4,O=C(c1ccc(Cl)cc1)N1CCC2(CC1)OCCO2,39.6
5,O=C(NCc1ccncc1)C(=O)NC1CC1,> 32.9
6,N#C/C(=C\c1ccccc1)C(=O)N1CCN(c2ccccc2F)CC1,20.4
7,O=C(COC(=O)c1ccncc1)c1ccc(Cl)c(Cl)c1,39.8
8,Cc1ccc(-c2c(=O)n(O)c3ccccc3[n+]2[O-])cc1,40.1
9,CC1CCCC(NC(=O)COC(=O)CCc2ccccc2)C1C (stereo not given),12.2
10,O=[N+]([O-])c1ccccc1NCc1ccccc1Cl,< 0.3
11,Cn1c(N)c(C(=O)COC(=O)c2ccccc2C(=O)c2ccc(Cl)cc2)c(=O)n(C)c1=O,6.3
12,CCCCCNCc1ccc(Cl)cc1,12.4
13,CCC(C(=O)NCc1cccnc1)c1ccccc1 (stereo not given),> 38.1
14,O=C(NC(=O)c1ccc(Cl)cc1)Nc1ccc(-c2cnco2)cc1,2.7
15,CC1=C/C(=N\OS(=O)(=O)c2ccccc2)C=CC1=O,7.9
16,S=C(Nc1ccc2c(c1)OCO2)Nc1ccccc1Cl,32.5
17,O=C(O)c1ccc2c(c1)SC1=NS(=O)(=O)CCN12,> 42.6
18,Cc1nc(NC(=O)c2c(-c3ccccc3)noc2C)sc1C(=O)N(C)C,> 55.6
19,O=C(NCc1ccc2c(c1)OCO2)c1cc(=O)[nH]c2ccccc12,6
20,Cc1ccccc1N1C(=O)Cc2ccccc2C1=O,35.4

row,SMILES,solubility kinetic [µg/mL]
1,CCOC(=O)c1cc(C(C)(C)C)nc(SC)c1C#N,1.3
2,CC(C)(C)C(O)(CC#CCN1CCCC1)c1ccccc1.Cl (stereo not given),> 48.3
3,CCOc1ccc(CCNC(=O)c2ccc(=O)[nH]c2)cc1OCC,> 49.6
4,O=C(O)CNC(=S)N(Cc1ccccc1Cl)C1CCCC1,> 49
5,Cc1cccc(N2CC(C(=O)OCC(=O)Nc3sccc3C(N)=O)CC2=O)c1C (stereo not given),6.5
6,CN(C(=O)c1ccco1)c1nc(-c2ccccc2)cs1,< 0.3
7,CCC(=O)N1CCN=C1SCc1cccc(C(F)(F)F)c1,40.8
8,CN(CC(=O)Nc1cccc(F)c1)CC(=O)Nc1ccccc1-c1ccccc1,17.3
9,O=C(O)Cn1cc(/C=N/Nc2ccc([N+](=O)[O-])cn2)c2ccccc21,> 50.9
10,O=C1CCCc2c1nc(-c1ccc(F)cc1)n2O,> 36.9
11,CCNC(=O)C(CCSC)NS(=O)(=O)c1ccc(C)cc1 (stereo not given),> 49.6
12,O=C(Nc1ccc(C(=O)N2CCCc3ccccc32)cc1)c1cccs1,< 0.4
13,O=C(NS(=O)(=O)c1ccc(Cl)cc1)c1ccccc1,26.7
14,Cc1cccc(/C(N)=N/OC(=O)c2ccncc2)c1,29.1
15,CN1c2ccc(Cl)cc2C(=O)NC1c1ccc([N+](=O)[O-])s1 (stereo not given),30.1
16,CCN(CC)C(=O)c1csc(Nc2cccc3ccccc23)n1,7.2
17,CC(C(=O)Nc1ccccc1)N(C)Cc1cccs1 (stereo not given),33.6
18,CCOC(=O)c1cn2nc(N3CCCCC3)ccc2n1,> 41.1
19,COC(=O)c1cc(OC)c(OC)cc1N1C(=O)CC(C)(C)CC1=O,> 50.3
20,CCc1cccc2c(C(=O)COC(=O)[C@@H]3CC(O)CN3S(=O)(=O)c3ccccc3[N+](=O)[O-])c[nH]c12 (stereo not given in full),30.6

row,SMILES,solubility kinetic [µg/mL]
1,Cc1csc(Nc2nc(N)c(C(=O)Nc3ccccc3)o2)n1,3.3
2,O=C(Cc1ccccc1)NCc1ccncc1,28.2
3,Cc1[nH]c2ccccc2c1C(=O)CSC(=S)N1CCN(C)CC1,2.4
4,Cl.Fc1cccc(C2NCc3ccccc3-n3cccc32)c1 (stereo not given),30.6
5,COc1ccc(Cc2nc(-c3ccncc3)no2)cc1,35.5
6,Cc1ccc(S(=O)(=O)N2CCCN(C(=O)OC(C)(C)C)CC2)cc1,> 53.2
7,COc1cccc(Nc2nc(-c3ccccc3)nc3ccccc23)c1,3.2
8,CCn1c(COc2ccc(C)cc2)nc2ccccc21,2.2
9,CCC(=O)c1cn(CC(=O)Nc2ccc(C)cc2)c2ccccc12,< 0.3
10,c1ccc(-c2csc(-c3ccncc3)n2)cc1,24.8
11,CSc1nc2ncnc(N)c2[nH]1,> 27.2
12,Cc1ccc(CNc2ncnc3cc(Cl)ccc23)cc1,5
13,CC1CN(C(=O)CCNC(=O)c2ccccc2Cl)CC(C)O1 (stereo not given),> 48.7
14,O=C(NC(=S)Nc1ccccc1N1CCCC1)c1cccs1,3.2
15,Cc1ccc(S(=O)(=O)NCc2ccccn2)cc1C,> 41.5
16,Cc1cc(C)cc(N=Cc2c(O)c3ccccc3oc2=O)c1,< 0.6
17,Cc1cc(=O)oc2cc(OCC(=O)N3CCCC3)ccc12,> 43.1
18,NC(=O)CNC(=O)c1cccc(Cl)c1,> 31.9
19,CSCCC(NC(=O)COc1ccccc1)C(=O)N1CCCC(C)C1 (stereo not given),> 54.7
20,COc1ccc(N2C(=O)C3CCCN3C2=S)cc1 (stereo not given),> 39.3
